{
  "source": "patent US9475789B2",
  "about": "“Use of polyenylpyrrole derivatives for treating inflammation” (WELLHEAD BIOLOGICAL TECHNOLOGY CORP., priority 2014, dated 2016)",
  "key": {"[1]": {"system": "TNF-α", "test": "TNF-α ELISA, LPS-activated J774A.1 macrophages", "type": "cell-based, murine", "settings": "J774A.1 cells, LPS 1 μg/ml 24 h", "experimental": "(§1) (A) J774A.1 macrophages (4×10^5/ml), (B) peritoneal macrophages (4×10^5/ml), and (C) JAWSII dendritic cells (4×10^5/ml) were incubated with compound 1h or DMSO for 30 min followed by stimulating with LPS (1 μg/ml) for 24 h, then IL-6 and TNF-α concentration in culture medium were assayed by ELISA. The data are expressed as the mean±SD for three separate experiments. *, **, and *** indicate a significant difference at the level of p<0.05, p<0.01, p<0.001 respectively compared to LPS group.\n(§2) The effects of tested samples on IL-1β, TNF-α and IL-6 production were measured by ELISA according to the manufacturer's instruction. In brief, 50 μl of biotinylated antibody reagent and 50 μl of supernatant were added to an anti-mouse IL-1β, TNF-α and IL-6 precoated stripwell plate, and incubated at room temperature for 2 h. After washing the plate three times with washing buffer, 100 μl of diluted streptavidin-HRP concentrate was added to each well and incubated at room temperature for 30 min. The washing process was repeated; then 100 μl of a premixed tetramethylbenzidine substrate solution was added to each well and developed at room temperature in the dark for 30 min. Following the addition of 100 μl of stop solution to each well to stop the reaction, the absorbance of the plate was measured by a microplate reader at 450 nm wavelength."}, "[2]": {"system": "IL-6", "test": "IL-6 ELISA, LPS-activated JAWSII dendritic cells", "type": "cell-based, murine", "settings": "LPS 1 μg/ml 24 h", "experimental": "as §1, §2"}, "[3]": {"system": "proIL-1β", "test": "Western blot of proIL-1β, LPS-activated J774A.1 macrophages", "type": "cell-based, mouse", "settings": "compound 30 min, then LPS 6 h", "experimental": "(§3) (A) J774A.1 macrophages (1×10^6/ml) and (B) peritoneal macrophages (1×10^5/ml) were incubated with compound 1h for 30 min followed by LPS (1 μg/ml) stimulating for 5.5 h, then the cells were stimulated with ATP (5 mM) for an additional 30 min. The IL-1β in the culture medium was measured by ELISA and the expression of active caspase-1 (p10) was measured by Western blot. In (C) and (D), J774A.1 macrophages (1×10^6/ml) were incubated with LPS (1 μg/ml) for 5.5 h, then cells were incubated with compound 1h for 30 min followed by stimulating with ATP (5 mM) for an additional 30 min. The IL-1β and IL-6 in the culture medium were measured by ELISA and the expression of active caspase-1 (p10) was measured by Western blot. In (E), J774A.1 macrophages (1×10^6/ml) were incubated with compound 1h for 30 min followed by LPS (1 μg/ml) stimulating for 6 h. The expression of NLRP3 and proIL-1β were measured by Western blot.\n(§4) Whole cell lysates were separated by SDS-PAGE and electrotransferred to a PVDF membrane. The membranes were incubated in blocking solution—5% nonfat milk in phosphate buffered saline with 0.1% Tween 20—at room temperature for 1 h. Each membrane was incubated with a specific primary antibody at room temperature for 2 h. After washing three times in PBS with 0.1% Tween 20, the membrane was incubated with an HRP-conjugated secondary antibody directed against the primary antibody. […]"}, "[4]": {"system": "IL-6", "test": "IL-6 ELISA, LPS-primed ATP-stimulated J774A.1 macrophages", "type": "cell-based, mouse", "settings": "LPS-primed J774A.1; compound 30 min before ATP stimulation", "experimental": "as §3\nThe effects of tested samples on IL-1β, TNF-α and IL-6 production were measured by ELISA according to the manufacturer's instruction. […] Following the addition of 100 μl of stop solution to each well to stop the reaction, the absorbance of the plate was measured by a microplate reader at 450 nm wavelength."}, "[5]": {"system": "ERK1/2, JNK1/2, p38", "test": "Western blot of MAPK phosphorylation, LPS-activated J774A.1 macrophages", "type": "cell-based, murine", "settings": "LPS-activated J774A.1, LPS 20 min", "experimental": "(§5) In (A), RAW 264.7 macrophages (5×10^5/ml) were incubated with compound 1h (20 μM), N-acetyl cysteine (NAC; 10 mM) or DMSO (vehicle) for 30 min followed by LPS (1 μg/ml) stimulating for the indicated time, then ROS levels were measured by detection of the fluorescence intensity of the fluorophore carboxyl-DCF and expressed relative to those at time zero. In (B), RAW 264.7 macrophages (5×10^5/ml) were incubated with compound 1h (20 μM) or DMSO for 30 min followed by LPS (1 μg/ml) stimulating for 0-60 min, then the phosphorylation levels of ERK1/2, JNK1/2, p38 were analyzed by Western blot. In (C), J774A.1 macrophages (5×10^5/ml) were incubated with compound 1h or DMSO for 30 min followed by LPS (1 μg/ml) stimulating for 20 min, then the phosphorylation levels of ERK1/2, JNK1/2, p38 were analyzed by Western blot.\nWhole cell lysates were separated by SDS-PAGE and electrotransferred to a PVDF membrane. The membranes were incubated in blocking solution—5% nonfat milk in phosphate buffered saline with 0.1% Tween 20—at room temperature for 1 h. Each membrane was incubated with a specific primary antibody at room temperature for 2 h. After washing three times in PBS with 0.1% Tween 20, the membrane was incubated with an HRP-conjugated secondary antibody directed against the primary antibody. The membrane was developed by an enhanced chemiluminescence Western blot detection system."}, "[6]": {"system": "ROS", "test": "Intracellular ROS production, LPS-activated RAW 264.7 macrophages", "type": "cell-based, murine", "settings": "compound 1h 20 μM, NAC 10 mM, 30 min before LPS", "experimental": "as §5\nIntracellular ROS stimulated by LPS was measured by detecting the fluorescence intensity of the 2′,7′-dichlorofluorescein diacetate (H2DCFDA) oxidized product (DCF) (Molecular Probes, Eugene, Oreg.). […] The relative fluorescence intensity of fluorophore DCF, formed by peroxide oxidation of the non-fluorescent precursor, was detected at an excitation wavelength of 485 nm and an emission wavelength of 530 nm with a microplate absorbance reader (Bio-Rad Laboratories, Inc)."}, "[7]": {"system": "NLRP3", "test": "Western blot of NLRP3, LPS-activated J774A.1 macrophages", "type": "cell-based, mouse", "settings": "compound 30 min, then LPS 6 h", "experimental": "as §3, §4"}, "[8]": {"system": "caspase-1", "test": "Western blot of active caspase-1 (p10), LPS+ATP-activated J774A.1 macrophages", "type": "cell-based, mouse", "experimental": "as §3, §4"}, "[9]": {"system": "TNF-α", "test": "TNF-α ELISA, RAW 264.7 macrophages", "type": "cell-based, murine", "experimental": "In (A) and (C), cells (5×10^5/ml) were incubated with polyenylpyrrole derivatives or DMSO (vehicle) for 30 min followed by stimulating with LPS (1 μg/ml) for 24 h, then NO (A), IL-6 and TNF-α (C) concentration in culture medium were assayed by Griess reaction and ELISA, respectively. In (B), cells (5×10^5/ml) were pretreated with polyenylpyrrole derivatives or DMSO for 30 min followed by stimulating with LPS (1 μg/ml) for 24 h, then the protein expression of iNOS and COX-2 were assayed by Western blot.\nas §2"}},
  "data": [
    {"smiles": "O=c1cc(O)cc(/C=C/C=C/C=C/C=C/c2[nH]ccc2Cl)o1", "note": "[Compound 1h]", "values": [
      {"measurement": "secretion of TNF-α", "setting": "[1]", "value": "reduced"},
      {"measurement": "secretion of IL-6", "setting": "[2]", "value": "also reduced"},
      {"measurement": "LPS-induced proIL-1β expression", "setting": "[3]", "value": "inhibited LPS-induced proIL-1β expression in a dose-dependent fashion"},
      {"measurement": "IL-6 secretion", "setting": "[4]", "value": "no significant effect"},
      {"measurement": "phosphorylation levels of ERK1/2, JNK1/2, p38", "setting": "[5]", "value": "confirmed"},
      {"measurement": "LPS-stimulated ROS production", "setting": "[6]", "value": "able to reduce LPS-stimulated ROS production"},
      {"measurement": "NLRP3 expression", "setting": "[7]", "value": "increased NLRP3 expression"},
      {"measurement": "caspase-1 activation", "setting": "[8]; J774A.1, compound before LPS and ATP treatment", "value": "significantly inhibited"},
      {"measurement": "caspase-1 activation", "setting": "[8]; LPS-primed J774A.1, compound 30 min before ATP stimulation", "value": "not caspase-1 activation"},
      {"measurement": "TNF-α secretion", "setting": "[9]; LPS-activated RAW 264.7, LPS 1 μg/ml 24 h", "value": "slight reduced by compounds 1h, 1i and 1n, but not significantly"},
      {"measurement": "background level of TNF-α", "setting": "[9]; compound alone, no LPS, data not shown", "value": "did not alter"}
    ]}
  ]
}
